In ChEMBL document CHEMBL3507680, “University of Dundee, Gates Library screen for HepG2 cell viability”:

experiment: Human HepG2 cell viability assay in 384 well format; type: toxicity, cell-based; design: dose 125 nL, time 70.5 hour; concentration not given beside the values; conditions: HepG2 cells, read-out: Inhibition

Going from `COCCCNC(=O)CN(C)C(=O)c1cc(C)ccc1O` to `COCCCNC(=O)CN(C)C(=O)c1cc(C)ccc1N(C)C(C)C`, the cytotoxicity at 70.5 h rises from -9.64% to -3.7%.

Going from `CN(CC(=O)N1CCC(C(O)c2ccccc2)CC1)c1cnccn1` (centres undefined) to `COc1ccccc1CC(=O)N1CCC(NCc2cc[nH]c2)CC1`, the cytotoxicity at 70.5 h rises from -20.6% to 4.03%.

Compared with `Cc1ccc(C)c(OCCN2CCC(N3CCNC3=O)CC2)c1`, `CC(=O)NCC1CCN(C(=O)c2csc(-c3ccc(C)cc3C)n2)CC1` is lower in cytotoxicity at 70.5 h: -3.76% for the first, -10.6% for the second.

First: COCCNC(=O)CN1CCN(c2nc(C)cs2)C(C)C1 (centres undefined)
Second: COCCCN(C)C1CCCN(Cc2noc(C)n2)C1 (centres undefined)
The cytotoxicity at 70.5 h of the first is lower: -1.03% for the first, 6.68% for the second.

First: Cc1nn(C)c(C)c1C1CCCN1C(=O)c1cnc2n[nH]c(C)c2c1 (centres undefined)
Second: Cc1nn(C)c(C)c1C1CCCN1Cc1nc(C2CC2)no1 (centres undefined)
The cytotoxicity at 70.5 h of the first is lower: -7.81% for the first, 36.6% for the second.

Compared with `Cc1cc(CN(C)C(=O)c2cc3c([nH]c2=O)CCCC3=O)no1`, `Cc1noc(C)c1C(=O)NCC(c1ccc(F)cc1)N(C)C` (centres undefined) is higher in cytotoxicity at 70.5 h: -14.6% for the first, -2.05% for the second.

Compared with `O=S(=O)(N(Cc1ccccn1)C1CC1)N1CCCC1c1ccco1` (centres undefined), `CN(Cc1cccc(F)c1)C1CCN(CCc2ccccn2)CC1` is higher in cytotoxicity at 70.5 h: -8.96% for the first, 15.1% for the second.

First: CC(NC(=O)NCCCn1ccnc1)c1ccc2c(c1)OCCCO2 (centres undefined)
Second: CC(NC(=O)NCCCN1CCCCCC1)c1nncn1C (centres undefined)
The cytotoxicity at 70.5 h of the first is lower: -10.6% for the first, 0.545% for the second.

Going from `Clc1ccc2cccnc2c1CN1CCCC1Cn1cncn1` (centres undefined) to `N#Cc1ccc(F)c(CN2CCCC2Cn2cccn2)c1` (centres undefined), the cytotoxicity at 70.5 h rises from -17.7% to -5.17%.

First: O=C(c1ccc(Br)o1)N1CCCCC1Cn1cccn1 (centres undefined)
Second: NC(=O)COc1cccc(C(=O)N2CCCC(n3cccn3)C2)c1 (centres undefined)
The cytotoxicity at 70.5 h of the first is lower: -10.3% for the first, 28.9% for the second.

Compared with `CCc1nc(CN2CCN(C(=O)c3cnccn3)CC2)cs1`, `CCOc1cc(C)nc(N2CCN(C(=O)CC)CC2)n1` is lower in cytotoxicity at 70.5 h: -5.66% for the first, -8.45% for the second.

First: Cc1ncsc1C(=O)NCCSCc1cccs1
Second: CCc1nnsc1C(=O)NCCn1nc2ccccn2c1=O
The cytotoxicity at 70.5 h of the first is lower: -1.32% for the first, 31.6% for the second.

First: COc1c(CNCCNC(=O)Cc2ccc(F)cc2)c(C)nn1C
Second: COc1c(CNCCNC(=O)c2ccc(C)cc2)c(C)nn1C
The cytotoxicity at 70.5 h of the first is higher: 34.8% for the first, 8.52% for the second.

Going from `CCC(C)(C)NC(=O)C1CC(=O)N(CC2CC2)C1` (centres undefined) to `CC(NC(=O)NCCN1CCCCCC1=O)c1nncn1C` (centres undefined), the cytotoxicity at 70.5 h falls from 27.7% to 7.16%.

Going from `COc1ccccc1CC(=O)N1CCC(NCc2c[nH]nc2C)CC1` to `Cc1ccc(-c2cc(CNC(=O)N3CCC(CO)CC3)on2)cc1`, the cytotoxicity at 70.5 h rises from 2.03% to 5.23%.

Compared with `c1ccc(Cc2noc(CNC3CCc4ncnn4C3)n2)cc1` (centres undefined), `O=c1[nH]c(CCN2CCCC(Cn3cncn3)C2)nc2ccccc12` (centres undefined) is higher in cytotoxicity at 70.5 h: -5.32% for the first, -0.545% for the second.

Going from `COc1c(CNC2CCOc3ccccc32)c(C(C)C)nn1C` (centres undefined) to `Cc1nnc(NCc2ccccc2Cl)c(C#N)c1C`, the cytotoxicity at 70.5 h falls from -7.12% to -9.79%.

First: NC(=O)C1CCN(CCc2ccc(NC(=O)C3CCC3)cc2)CC1
Second: O=C(Nc1ccc(CCN2CCC(O)CC2)cc1)C1CCOCC1
The cytotoxicity at 70.5 h of the first is lower: -1.87% for the first, 9.76% for the second.

Compared with `O=C(NCCNc1ncccn1)Nc1cc(C(F)(F)F)c[nH]c1=O`, `Cc1[nH]ncc1C(=O)N1CCCC(c2cc(C(F)(F)F)[nH]n2)C1` (centres undefined) is higher in cytotoxicity at 70.5 h: -3.37% for the first, 5.58% for the second.

Going from `Cc1nccn1C1CCCN(C(=O)c2ccc3c(c2)COC3)C1` (centres undefined) to `O=C(c1cccc(Cn2ccnc2)c1)N1CCCC(n2ccnc2)C1` (centres undefined), the cytotoxicity at 70.5 h falls from -3.92% to -16.1%.

First: Cc1noc(C)c1C(=O)NCC(O)c1ccc(F)cc1F (centres undefined)
Second: Cc1nc(CNC(=O)NCC(O)c2ccc(F)c(F)c2)cs1 (centres undefined)
The cytotoxicity at 70.5 h of the first is higher: 27.1% for the first, 1.43% for the second.

Going from `Cc1cc(CN2CCCC2c2noc(C3CC3)n2)c2ccccc2n1` (centres undefined) to `N#Cc1ccc(F)c(CN2CCCC2Cn2cnc3ccccc32)c1` (centres undefined), the cytotoxicity at 70.5 h falls from 51.7% to 7.39%.

Compared with `Cc1cc(C)n(CC2CCCN2C(=O)c2cnn(C)c2C2CC2)n1` (centres undefined), `COCCN1CCC(N(Cc2noc(C3CC3)n2)C(C)=O)C1` (centres undefined) is higher in cytotoxicity at 70.5 h: -11.8% for the first, 10.7% for the second.

First: CC(C)C(C(=O)N1CCCN(Cc2nccn2C)CC1)N1CCCC1 (centres undefined)
Second: Cc1ccc(N2CCCN(C(=O)C(C(C)C)n3cncn3)CC2)nn1 (centres undefined)
The cytotoxicity at 70.5 h of the first is higher: 30.4% for the first, 1.73% for the second.

Going from `CCN1CCC(CNC(=O)NCc2cc(-c3ccc(C)cc3)no2)C1` (centres undefined) to `COc1ccc(C(O)CNC(=O)NCc2csc(C)n2)cc1` (centres undefined), the cytotoxicity at 70.5 h rises from -1.11% to 27.2%.

Going from `CCC1CN(C(=O)Nc2cnc3c(cnn3C(C)C)c2)CCO1` (centres undefined) to `CC(NC(=O)CCc1cccs1)c1nnc2n1CCC2` (centres undefined), the cytotoxicity at 70.5 h falls from 1.85% to -36.3%.

Going from `COc1ccc(OCCCNC(=O)NCc2csc(C)n2)cc1` to `CS(=O)(=O)CCC(=O)Nc1cnn(-c2ccccc2Cl)c1`, the cytotoxicity at 70.5 h rises from -7.03% to 2.48%.

Compared with `CCS(=O)(=O)c1ccccc1N1CCC(NC(=O)NC2CCCC2)CC1`, `O=C(NCCC(=O)N1CCCC1)c1nn(-c2ccccc2F)cc1O` is higher in cytotoxicity at 70.5 h: -14.2% for the first, 35.9% for the second.

Compared with `CN1CCN(C(=O)c2ccc(=O)n(C)c2)c2ccccc21`, `CC(C)c1ncc2c(n1)CN(Cc1nc(-c3cccs3)no1)CC2` is lower in cytotoxicity at 70.5 h: -1.74% for the first, -11.9% for the second.

With `CCc1nc(C2CCCN2C(=O)CCNS(C)(=O)=O)no1` (centres undefined) the cytotoxicity at 70.5 h was 0.333%.
